The text below walks through data of PubChem BioAssay AID1996.

Converted amounts (≈) assume the structure as drawn.

For this series the following is noted: buffer; pH 7.4; 200.0 µM.
By solubility (kinetic) is commonly meant solubility judged after dilution from a stock solution rather than from solid. The molecule `O=C(NCC1COc2ccccc2O1)c1cccs1` (centres undefined) returned a solubility (kinetic) of 39.7 µg/mL (≈ 144 µM).
For `COc1ccccc1NC(=O)COC(=O)c1ccc([N+](=O)[O-])s1`, the solubility (kinetic) was found to be 5.1 µg/mL (≈ 15.2 µM).
As for `CC1CCCC(C)N1C(=S)SCC(=O)O` (centres undefined), the figure is over 37.1 µg/mL; as for `O=C(O)CC(CC(=O)Nc1ccc(Oc2ccccc2)cc1)c1ccccc1` (centres undefined), over 56.3 µg/mL.
As for `C=CCn1c(NCc2ccccc2O)nc2ccccc21`, the figure is 2.4 µg/mL (≈ 8.59 µM); as for `COc1ccc(C(=O)N2CCn3c2nc2ccccc23)cc1`, 6.7 µg/mL (≈ 22.8 µM).
As for `O=c1c2ccccc2nc(/C=C/c2cccnc2)n1CCc1ccccc1`, the figure is 22.1 µg/mL (≈ 62.5 µM).
`Cn1c(O)c(C=NCCN2CCNCC2)c(=O)[nH]c1=O`: the kinetic solubility was over 42.2 µg/mL.
As for `Cc1ccc(NC(=O)Nc2cccc(F)c2)nc1`, the figure is 1.3 µg/mL (≈ 5.3 µM).
As for `O=C1CN(C(=O)COc2ccc(Cl)cc2Cl)c2ccccc2N1`, the figure is 3.1 µg/mL (≈ 8.83 µM); as for `CC(=O)Nc1ccc2nc(NC(=O)c3ccc([N+](=O)[O-])o3)sc2c1`, 4 µg/mL (≈ 11.5 µM); as for `O=C(Cc1nc2ccccc2[nH]1)c1ccc([N+](=O)[O-])cc1`, 37.8 µg/mL (≈ 134 µM).
Under `O=C(NCC(c1ccco1)N1CCOCC1)c1ccc(Cl)cc1` (centres undefined) stands over 50.2 µg/mL; under `COc1ccc(C(=O)O)cc1S(=O)(=O)Nc1ccc(N2CCCCC2)cc1`, 54.7 µg/mL (≈ 140 µM).
The molecule `Cc1ccc(NC(=S)N(N)CCO)cc1` showed a kinetic solubility of over 33.8 µg/mL.
In turn, `CC1=CC(C)(C)N=C(Nc2nc(C)c3cc(C)cc(C)c3n2)N1` came in with a solubility (kinetic) of over 46.4 µg/mL.
As for `COc1cccc(C(=O)N2CCn3c2nc2ccccc23)c1`, the figure is over 44 µg/mL.
As for `CCOC(=O)C1CCN(C(=S)Nc2ccc(C)cc2)CC1`, the figure is 19.9 µg/mL (≈ 64.9 µM).
As for `CC1CCCN(C(=O)c2cc(-c3cccs3)nc3ccccc23)C1` (centres undefined), the figure is 17.2 µg/mL (≈ 51.1 µM); as for `CCc1cccc(NC(=O)Cn2cc(C=O)c3ccccc32)c1`, 0.5 µg/mL (≈ 1.63 µM); as for `Fc1ccc(C(CCNCc2cccs2)c2ccco2)cc1` (centres undefined), 34.2 µg/mL (≈ 108 µM).
`Cc1ccc(C(=O)NCC(=O)Nc2ccncc2)cc1C` came in with a solubility (kinetic) of 12.3 µg/mL (≈ 43.4 µM).
Consider `CC(C)(C)c1ccc(C(=O)NCC(=O)N2CCNC(=O)C2)cc1`, for which the kinetic solubility was over 47.6 µg/mL.
As for `CN(C)S(=O)(=O)Nc1cccc(Br)c1`, the figure is over 41.9 µg/mL; as for `CC1CCCCN1C(=O)COC(=O)c1ccc(N2CCCC2=O)cc1` (centres undefined), over 51.7 µg/mL.
As for `O=C(Cn1cc(C(=O)c2ccccc2F)c2ccccc21)NC1CC1`, the figure is 2 µg/mL (≈ 5.95 µM); as for `Cc1ccc(NC(=O)c2c([N+](=O)[O-])cnn2C)cc1C`, over 41.1 µg/mL; as for `Cc1ccc(N=C2NC(=O)/C(=C/c3cccnc3)S2)c(C)c1`, 4.8 µg/mL (≈ 15.5 µM).
The molecule `C=CCOC(=O)c1sc(NC(=O)c2ccc(OC)cc2)nc1C` gave a solubility (kinetic) of under 0.4 µg/mL.
As for `O=C(NCCCn1ccnc1)c1ccc2ccccc2c1`, the figure is 34.8 µg/mL (≈ 125 µM).
Under `O=C(COc1ccccc1F)Nc1ccc2[nH]c(=O)[nH]c2c1` stands 4.5 µg/mL (≈ 14.9 µM).
Under `Cc1nc(C)c(C(=O)OCC(=O)Nc2cccc(C)c2C)s1` stands 39.7 µg/mL (≈ 125 µM); under `O=C(COC(=O)c1cc(S(=O)(=O)N2CCCCC2)ccc1Cl)NC1CCS(=O)(=O)C1` (centres undefined), over 71.8 µg/mL.
For the molecule `O=C(NCCNc1ccccc1[N+](=O)[O-])c1ccccc1F`, the kinetic solubility was over 45.5 µg/mL.
Molecule `CC1CCCCN1C(=O)CSc1nc(-c2ccccc2)cn1N` (centres undefined) returned a solubility (kinetic) of over 49.6 µg/mL.
Turning to `CC(C)NCC(O)c1ccc(NS(C)(=O)=O)cc1.Cl` (centres undefined), the kinetic solubility was over 46.3 µg/mL.
For `Cc1cc(O)c(C2(O)C(=O)Nc3ccccc32)cc1C` (centres undefined), the solubility (kinetic) is over 40.4 µg/mL.
In the case of `Cc1ccccc1C(=O)NC(=S)NC1CCS(=O)(=O)C1` (centres undefined), the kinetic solubility is over 46.9 µg/mL.
Under `NC(=O)COc1ccc(NC(=O)CC23CC4CC(CC(C4)C2)C3)cc1` stands 8.9 µg/mL (≈ 26 µM).
Under `O=S1(=O)NC(=NCCOCCO)c2ccccc21` stands over 40.5 µg/mL.
For the molecule `Cl.O=C(NCCCN1CCOCC1)c1cc(S(=O)(=O)N2CCOCC2)ccc1Cl`, the kinetic solubility is over 70.3 µg/mL.
As for `Cc1ccc(NC(=O)CN(C)C(=O)COC(=O)[C@@H](NC(=O)c2ccccc2F)C(C)C)cc1`, the figure is over 68.6 µg/mL.
As for `O=C1CCCN1Cc1ccccc1`, the figure is over 26.3 µg/mL; as for `O=C(OCc1nc2ccccc2s1)c1ccco1`, 35.4 µg/mL (≈ 137 µM); as for `NC(=O)c1cc(S(=O)(=O)NCc2ccccc2)cs1`, over 44.5 µg/mL.
Under `COc1ccc2c(c1OC)C(=O)N(c1ccc(C)cc1)C2` stands 3.2 µg/mL (≈ 11.3 µM); under `O=c1c(Cc2ccc(Cl)cc2Cl)c(O)ccn1Cc1ccncc1`, over 54.2 µg/mL; under `COc1ccc2nc(C)cc(Nc3ccc(N4CCN(C)CC4)cc3)c2c1`, over 54.4 µg/mL.
With `CCCNC(=O)CSc1nc2ccc(OCC)cc2s1`, the solubility (kinetic) came out at 7.2 µg/mL (≈ 23.2 µM).
As for `Cc1cc(C)c(C(=O)Nn2c(C)nc3ccccc3c2=O)cc1C`, the figure is over 48.2 µg/mL.
Under `O=C(Nc1ccc2[nH]ccc2c1)c1ccc(F)cc1` stands over 38.1 µg/mL.
Under `Cc1nc2ccccc2c(=O)n1CCc1ccc(O)cc1` stands over 42 µg/mL; under `COc1ccc(/C=C/C(=O)NCc2ccc3c(c2)OCO3)cc1OC`, 2.8 µg/mL (≈ 8.2 µM); under `COc1ccc(Cl)cc1C(=O)Nc1ccc(NC(=O)C(C)C)cc1`, 0.5 µg/mL (≈ 1.44 µM).
`O=C(COc1ccccc1)Nc1ccc(NC(=O)c2ccco2)cc1` came in with a solubility (kinetic) of 2.6 µg/mL (≈ 7.73 µM).
As for `Brc1cccc(-c2cnco2)c1`, the figure is 4 µg/mL (≈ 17.9 µM); as for `Cc1ccc(C(=O)Nc2ccc3ccccc3c2)cc1`, under 0.6 µg/mL; as for `Cc1ccc(N(Cc2ccccc2)C(=O)CN2C(=O)NC3(CCCC3)C2=O)cc1`, over 58.7 µg/mL.
As for `COC(=O)c1ccc(/C=C/C(=O)OCC(=O)c2ccc[nH]2)cc1`, the figure is 6.8 µg/mL (≈ 21.7 µM).
`N#CCC(=O)Nc1ccc(C(=O)OCC(=O)c2c[nH]c3ccccc23)cc1`: the solubility (kinetic) was 4.7 µg/mL (≈ 13 µM).
As for `O=C1c2cccc3cccc(c23)C(=O)N1c1ccccc1Cl`, the figure is 0.8 µg/mL (≈ 2.6 µM); as for `Cc1cccc(NC(=O)c2ccccc2NC(=O)c2ccco2)c1`, 0.5 µg/mL (≈ 1.56 µM); as for `CSc1ncccc1C(=O)OCC(=O)NC1CCCC1`, over 44.2 µg/mL.
`O=C(NCC(c1ccc(F)cc1)N1CCOCC1)c1ccc(-c2ccccc2)cc1` (centres undefined) yielded a solubility (kinetic) of 3.2 µg/mL (≈ 7.91 µM).
In turn, `COc1ccc(C)cc1NC(=O)CSc1cccc[n+]1[O-]` registered a kinetic solubility of over 45.7 µg/mL.
Under `O=C(NCCCO)C(=O)c1c(-c2ccccc2)cc2ccccn12` stands over 48.4 µg/mL; under `O=C(c1ccc(Br)cc1)N1CCCc2ccccc21`, 14 µg/mL (≈ 44.3 µM); under `COc1ccc(S(=O)(=O)N2CCSC2C)cc1C` (centres undefined), 34.9 µg/mL (≈ 121 µM).
As for `O=C1NC(Cc2c[nH]c3ccccc23)C(=O)N1Cc1ccccc1` (centres undefined), the figure is over 47.9 µg/mL.
As for `Cc1ccc(/C=C(\C#N)C(=O)N2CCCC2)c(C)c1`, the figure is over 38.1 µg/mL.
In the case of `Cc1cccc(C(=O)OCC(=O)NC2CCCCCCC2)c1`, the solubility (kinetic) was found to be 21.6 µg/mL (≈ 71.2 µM).
In turn, `COc1ccc(Cl)cc1NC(=O)Nc1cc(C)on1` gave a kinetic solubility of 0.9 µg/mL (≈ 3.19 µM).
Under `CC1CCN(C(=O)COC(=O)c2cccs2)CC1` stands over 40.1 µg/mL; under `Cc1csc(NC(=O)c2cccnc2)n1`, 32.5 µg/mL (≈ 148 µM).
